Data from paper PMC9741104, “Uptake of Flaxseed Dietary Linusorbs Modulates Regulatory Genes Including Induction of Heat Shock Proteins and Apoptosis” (Foods, 2022).
Values joined by “and” are separate entries in the source; they are usually repeats but may differ in a detail not shown here. Equal entries are not always repeated. Where two headings read alike, the source gives them in different places. Marks after values point to notes of the source that are not given here.

What was measured:
cancer C6 cells = conditions: cited from earlier work
[1] = LOs in pig adipose after flaxseed diet (HPLC-ToF-MS); conditions: pig fed diet with 15% extruded flaxseed meal; fat biopsy at 10th rib, chloroform extract, HPLC-ToF-MS molecular ions
Excerpt: Swine were fed a diet consisting of 15% flaxseed meal that was combined with other ingredients then extruded. Swine fat samples were taken from an 8 mm biopsy punch at the 10th rib, approximately 5 cm from the backbone [31]. The tissue samples were then extracted with chloroform and the extracts were dried, taken up in acetonitrile, and analyzed via direct loop injections using an Agilent 1100-series high-performance liquid chromatography (HPLC, Agilent, Santa Clara, CA, USA) equipped with a time-of-flight mass spectrometer (ToF-MS). Each sample extract was injected at a flow rate of 50 μL/min. The mobile phase consisted of 95% water: methanol containing 0.1% formic acid, and 5% acetonitrile.

[2] = administered orally and intravenously, cited from earlier work
Excerpt: The combined characteristics of the strong immunosuppressive activity and low toxicity make LOB3 an immunosuppressive drug candidate. Other LOs and their analogs have also been investigated for their immunosuppressant activity. […] Similarly, [1–8-NαC], [1-(Rs, Ss)-MetO]-linusorb B1 (LO1OB1, also known as CLE) ...

[3] = system: breast cancer cell line MDA-MB-231; conditions: doses lower than 10 µM; cited from earlier work
HSP 70A = test: Induction of HSP 70A in nematodes (qRT-PCR); format: in vivo, Caenorhabditis elegans; conditions: 2 h exposure, normalized to GAPDH, three repetitions
Protocol: Gene expression of HSP 70A in nematodes was completed as described in Saini et al. (2011). Briefly, C. elegans N2 strains were cultured in the dark and at room temperature on sterile plates (10 mm; VWR, Edmonton, AB, Canada) containing 10% bacteriological agar (Sigma-Aldrich, Oakville, ON, Canada) and autoclaved Baker’s yeast (1%, w/v). C. elegans were sub-cultured every 14 days to fresh plates. Exposure experiments began using C. elegans, which were two weeks old. These cultures were exposed for 2 h to either DMSO (negative control) or various concentrations (0.1, 1.0, 10.0, and 100.0 µM) of LOB3 dissolved in DMSO. After exposure, these organisms were then re-cultured to assess the effects of LOB3 on HSP 70A gene expression. An unamended culture medium was used as the control treatment. After treatment, cultures were centrifuged at 400× g for 10 min at 4 °C. The pellet was retained and stored at −80 °C until further analysis.
RNeasy® Mini kits (Qiagen, Mississauga, ON, Canada) were used to extract total RNA from C. elegans lysates, according to the manufacturer’s instructions. RNA quality was confirmed and quantified using agarose gel electrophoresis and a Nano Drop® spectrophotometer (Thermo Fisher Scientific, Ottawa, ON, Canada), respectively. […] This was accomplished using a Stratagene MX3005P LightCycler (La Jolla, CA, USA). The glyceraldehyde-3-phosphate dehydrogenase gene (GAPDH; GenBank Accession No. X04818) was used as the reference housekeeping gene for qRT-PCR analyses. The primer pairs used during qRT-PCR are listed in Table 2. qRT-PCR reactions were performed using QuantiFast® SYBR® Green PCR kit (Qiagen, Mississauga, ON, Canada) following the manufacturer’s instructions. The thermocycler conditions included an initial denaturation at 95 °C for 5 min, followed by 45 cycles of denaturation at 95 °C for 30 s, annealing at 55 °C for 30 s and elongation at 60 °C for 45 s, to amplify the target gene. Relative gene expression levels were corrected against the GAPDH housekeeping gene using MXPro software. All analyses were completed in triplicate.

Calu-3 cells = test: Microarray analysis of apoptosis-regulating genes (Rt2 Profiler PCR Super Array); format: cell-based, human; design: key: +: genes over-expressed; NE: not expressed; –: genes under-expressed; conditions: Calu-3 exposed to LOs
Protocol: Human bronchial epithelial adenocarcinoma cell line (Calu-3) was obtained from the American Type Culture Collection (ATCC, Manassas, VA, USA). Calu-3 cell line was cultured in plastic culture flasks containing Modified Eagle’s Medium (MEM) and supplemented with 10% fetal bovine serum, glutamine (4 mM), and penicillin (100 U/mL)-streptomycin (100 μg/mL) solution. Cells were cultured to a density of 10^6 cells/mL before adding fresh media (on day 3). The cells were then grown at 37 °C under 5% CO2, and 100% humidity.
Microarray analysis was performed to determine LO effects on the expression of genes involved in regulating apoptosis (i.e., pro- or anti-apoptotic genes) in Calu-3 cells. These analyses were using an Rt2 Profiler PCR Super Array kit (Super Arrays Bioscience Corp., Frederick, MD, USA) following manufacturer’s instructions and were recorded using an MX3005P LightCycler (Stratagene, La Jolla, CA, USA).

C. elegans = test: Lethality in nematode cultures; format: in vivo, Caenorhabditis elegans; conditions: 100 µM, 2 h exposure
[4] = Circular dichroism secondary structure estimate in aqueous-DMSO solution; format: physicochemical; conditions: CD spectra 260–200 nm, H2O/DMSO (3%, v/v), room temperature, CDNN deconvolution, triplicate
Protocol: Circular dichroism (CD) spectroscopy was performed on LO samples using a fresh solution of aqueous-dimethylsulfoxide solution (H2O/DMSO, 3%, v/v). CD measurements were completed using a Pistar 180 spectrometer (Applied Photophysics Ltd., Leatherhead, UK). Sample measurements were conducted at room temperature using a 0.01 cm cuvette (Hellma 106-QSP), and samples were scanned between 200–260 nm at 0.5 nm increments, with a scan rate of 10 nm/min. The instrument was calibrated using (+)-10-camphorsulfonic acid (290.5 nm wavelength). Experiments were performed in triplicate and are reported as mean ± standard deviation (SD). The secondary structure content of the samples was evaluated with the CDNN CD Spectroscopy Deconvolution software version 2.0.3.188 [30]. Molar ellipticities were calculated from molecular masses of 977.26–1074.37 Da for LOs. All spectra were corrected by background subtraction of H2O/DMSO (3%, v/v).

| Substance | BAK1 (BCL2 antagonist/killer 1) up- or down-regulated (Calu-3 cells) | CASP10 (Caspase 10) up- or down-regulated (Calu-3 cells) | CIDEA (Cell death-inducing DFFA-like effector A) up- or down-regulated (Calu-3 cells) | CIDEB (Cell death-inducing DFFA-like effector B) up- or down-regulated (Calu-3 cells) | Fas (TNF receptor superfamily member 6) up- or down-regulated (Calu-3 cells) | FasL (Fas ligand) up- or down-regulated (Calu-3 cells) | HRK (Harakiri) up- or down-regulated (Calu-3 cells) | TNF (Tumor necrosis factor) up- or down-regulated (Calu-3 cells) | TP53 (Tumor protein p53) up- or down-regulated (Calu-3 cells) | TP53BP2 (Tumor protein p53 binding protein 2) up- or down-regulated (Calu-3 cells) | Antiparallel (%) [4] | Parallel (%) [4] | Random Coil (%) [4] | α-Helix (%) [4] | β-Turn (%) [4] | BCL2 (B-cell lymphoma 2) up- or down-regulated (Calu-3 cells) | further results |
| --- | --- | --- | --- | --- | --- | --- | --- | --- | --- | --- | --- | --- | --- | --- | --- | --- | --- |
| [1–9-NαC]-linusorb B3 [LOB3] | + ^a | NE | NE | + | + | + | NE | + | + | + | 0.00% | 0.3% | 0.1% | 98.90% | 0.7% |  | Cytotoxic effects (cancer C6 cells; concentrations greater than 10.0 µM, changes in cell shape and reduction in cell numbers): cytotoxic effects were observed; Cytotoxic effects (cancer C6 cells; doses lower than 10 µM): no cytotoxic effects; Distribution to adipose tissue [1]: trace amounts; Toxicity ([2]; mice): non-toxic; Toxicity ([2]; rats): non-toxic; Cytotoxic effects [3]: no cytotoxic effects; Increase in HSP 70A production (HSP 70A; 0.1 µM): 30%; Increase in HSP 70A production (HSP 70A; 1.0 µM): 3.5 fold; Increase in HSP 70A production (HSP 70A; 10.0 µM): 30%; Lethality (C. elegans): lethal |
| [1–9-NαC], [1-(Rs, Ss)-MetO]- linusorb B2 [LO1OB2] | NE ^b | + | + | + | + | NE | + | + | + | + | 0.00% | 0.40% | 0.10% | > 75% and 98.90% | 0.60% | – |  |
| [1–8-NαC], [1-(Rs, Ss)-MetO]- linusorb B1 [LO1OB1] | NE | NE | + | + | + | NE | + | + | NE | + | 0.00% | 0.30% | 18.20% | 75.30% | 6.20% | – ^c |  |
